# Data: paper PMC10327353 (Breast Cancer Research : BCR, 2023)
# Where two headings read alike, the source gives them in different places.
# Columns and labels:
# [1] = Caco-2 passive permeability; type: in vitro ADME; conditions: human, Caco-2, pH 7.4; read-out: Caco-2 Papp (intrinsic passive permeability)
# Text: Passive permeability (Papp) characterizes the rate across the cell membrane due to passive diffusion. A high permeability enables the rapid establishment of equilibrium among plasma, CSF, and brain compartments. Except for passive permeability, sufficient unbound drug concentration in the brain is governed by efflux transporters, including P-gp (MDR1, ABCB1) and BCRP, at BBB. Efflux ratio (ER) reflects the liability of a compound to be pumped out of the brain by BBB efflux transporters, which is indicated by the distribution disequilibrium between the plasma and the brain compartments.
# Again, DZD1516 and DZ2678 permeability were evaluated in a bi-directional assay in Caco-2 cells at 5 μM. The efflux ratio of DZD1516 and DZ2678, with or without novobiocin (a selective BCRP inhibitor), determined whether DZD1516 or DZ2678 was transported via BCRP in Caco-2 cells. The apical-to-basolateral (A-B) and basolateral-to-apical (B-A) transport of DZD1516/DZ2678 in HBSS (25 mM HEPES, pH 7.4) with 0.1% BSA was measured across Caco-2 cell monolayers in the absence and presence of BCRP inhibitor, novobiocin (30 μM). […] Transport of 5 µM DZD1516/DZ2678 and control compound was determined by quantifying substrate concentration in the incubation medium of the donor compartment at the beginning of the incubation period and both donor and receiver compartments at the end of the incubation period. […]
# [2] = tested on: BT474C1-Luci Mono1 SC xenograft; experiment: SC (subcutaneous) BT474C1-Luci Mono1 xenograft model; type: in vivo, nude mice
# Procedure: Tumor cell suspension at 5 × 10^6 were injected subcutaneously in a total volume of 0.2 ml (1:1 with ECM Gel) into each mouse. 17β-ESTRADIOL (90-day release, 0.36 mg/pellet) were implanted 24 hrs before cells were injected subcutaneously. Tumor nodules were measured in two dimensions with caliper and the tumor volume was calculated using the following formula: tumor volume = (length × width^2) × 0.5. Tumor-bearing mice were randomized into different treatment groups when the mean tumor volume reached around 150 mm^3.
# [3] = Phase 1 study: CSF penetration (Kp,uu,CSF); type: in vivo, human; conditions: for Kp uu: human, oral
# Procedure: Blood samples for PK analyses of DZD1516 and DZ2678 were collected on C0D1. Samples were obtained at pre-dose and at 0.5, 1, 1.5, 2, 2.5, 3, 4, 6, 8, 10, 24, 48, and 72 h after the dose, while for C1D15, samples were obtained at pre-dose and 0.5, 1, 1.5, 2, 2.5, 3, 4, 6, 8, and 10 h after the dose. CSF samples for PK analyses of DZD1516 and its metabolite DZ2678 were collected from patients with BM (C1D15) and LM (C1D15 and C3D1) at steady state (Additional file 1). Plasma and CSF samples were analyzed by LabCorp Madison laboratory (Madison, WI, USA) and LabCorp Shanghai laboratory (Shanghai, China) using a validated LC/MS/MS bioanalytical method to determine DZD1516 and DZ2678 concentrations. Non-compartmental PK analysis was performed using Phoenix WinNonlin (Certara USA Inc., version 8.3.3.33).
# Met(h) = target: T1, Met(h) (Homo sapiens, UniProt P08581); experiment: Kinase panel assay (Eurofins); type: biochemical
# T1 construct: purchased Eurofins UK Ltd (Dundee, UK)
# Procedure: (§1) In vitro profiling of the 121-recombinant kinase panel was performed at Eurofins UK Ltd (Dundee, UK). In brief, recombinant kinases were incubated within an appropriate buffer containing peptide substrate and radiolabelled γ-^33P-ATP together with the presence or absence of the required compound concentration. The reaction was initiated by adding ATP/Mg^2+ mix. After incubation for 40 minutes at room temperature, the reaction was stopped by adding 3% phosphoric acid solution. A portion of the reaction mix was spotted onto P30 filtermat to trap peptide and washed three times for 5 minutes with phosphoric acid to remove non-specific γ-^33P-ATP. The substrate phosphorylation was then measured by scintillation counting, which determined the level of kinase activity inhibition compared to control reactions. Percentage inhibition data for each kinase was mapped to the kinome tree (www.kinhub.org).
# EGFR(T790M,L858R)(h) = target: T2, EGFR(T790M,L858R)(h) (Homo sapiens, UniProt P00533, L858R/T790M); experiment: Kinase panel assay (Eurofins); type: biochemical
# T2 construct: purchased Eurofins UK Ltd (Dundee, UK)
# Procedure: as §1
# EGFR(h) = target: T3, EGFR(h) (Homo sapiens, UniProt P00533); experiment: Kinase panel assay (Eurofins); type: biochemical
# T3 construct: purchased Eurofins UK Ltd (Dundee, UK)
# Procedure: as §1
# Blk(h) = target: T4, Blk(h) (Homo sapiens, UniProt P51451); experiment: Kinase panel assay (Eurofins); type: biochemical
# T4 construct: purchased Eurofins UK Ltd (Dundee, UK)
# Procedure: as §1
# TrkA(h) = target: T5, TrkA(h) (Homo sapiens, UniProt P04629); experiment: Kinase panel assay (Eurofins); type: biochemical
# T5 construct: purchased Eurofins UK Ltd (Dundee, UK)
# Procedure: as §1
# HER2(h) = target: T6, HER2(h) (Homo sapiens, UniProt P04626); experiment: Kinase panel assay (Eurofins); type: biochemical
# T6 construct: purchased Eurofins UK Ltd (Dundee, UK)
# Procedure: as §1
# c-RAF(h) = target: T7, c-RAF(h) (Homo sapiens, UniProt P04049); experiment: Kinase panel assay (Eurofins); type: biochemical
# T7 construct: purchased Eurofins UK Ltd (Dundee, UK)
# Procedure: as §1
# Lyn(h) = target: T8, Lyn(h) (Homo sapiens, UniProt P07948); experiment: Kinase panel assay (Eurofins); type: biochemical
# T8 construct: purchased Eurofins UK Ltd (Dundee, UK)
# Procedure: as §1
# Fms(h) = target: T9, Fms(h) (Homo sapiens, UniProt P07333); experiment: Kinase panel assay (Eurofins); type: biochemical
# T9 construct: purchased Eurofins UK Ltd (Dundee, UK)
# Procedure: as §1
# Lck(h) = target: T10, Lck(h) (Homo sapiens, UniProt P06239); experiment: Kinase panel assay (Eurofins); type: biochemical
# T10 construct: purchased Eurofins UK Ltd (Dundee, UK)
# Procedure: as §1
# ErbB4(h) = target: T11, ErbB4(h) (Homo sapiens, UniProt Q15303); experiment: Kinase panel assay (Eurofins); type: biochemical
# T11 construct: purchased Eurofins UK Ltd (Dundee, UK)
# Procedure: as §1
# T8 sequence (P07948 whole entry): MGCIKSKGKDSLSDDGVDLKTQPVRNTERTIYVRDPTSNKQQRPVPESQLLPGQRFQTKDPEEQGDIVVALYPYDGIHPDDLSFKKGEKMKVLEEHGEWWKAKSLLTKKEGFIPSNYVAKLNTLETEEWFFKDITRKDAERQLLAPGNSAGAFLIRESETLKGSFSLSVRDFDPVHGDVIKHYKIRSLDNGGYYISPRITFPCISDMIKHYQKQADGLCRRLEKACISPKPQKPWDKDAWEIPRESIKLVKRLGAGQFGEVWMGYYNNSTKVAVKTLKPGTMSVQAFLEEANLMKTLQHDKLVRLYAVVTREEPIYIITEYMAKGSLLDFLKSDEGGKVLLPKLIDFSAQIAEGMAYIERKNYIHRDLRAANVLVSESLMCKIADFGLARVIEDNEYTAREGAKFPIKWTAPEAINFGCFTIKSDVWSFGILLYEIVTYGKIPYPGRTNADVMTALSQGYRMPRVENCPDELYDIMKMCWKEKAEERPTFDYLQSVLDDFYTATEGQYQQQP
# T5 sequence (P04629 33-796): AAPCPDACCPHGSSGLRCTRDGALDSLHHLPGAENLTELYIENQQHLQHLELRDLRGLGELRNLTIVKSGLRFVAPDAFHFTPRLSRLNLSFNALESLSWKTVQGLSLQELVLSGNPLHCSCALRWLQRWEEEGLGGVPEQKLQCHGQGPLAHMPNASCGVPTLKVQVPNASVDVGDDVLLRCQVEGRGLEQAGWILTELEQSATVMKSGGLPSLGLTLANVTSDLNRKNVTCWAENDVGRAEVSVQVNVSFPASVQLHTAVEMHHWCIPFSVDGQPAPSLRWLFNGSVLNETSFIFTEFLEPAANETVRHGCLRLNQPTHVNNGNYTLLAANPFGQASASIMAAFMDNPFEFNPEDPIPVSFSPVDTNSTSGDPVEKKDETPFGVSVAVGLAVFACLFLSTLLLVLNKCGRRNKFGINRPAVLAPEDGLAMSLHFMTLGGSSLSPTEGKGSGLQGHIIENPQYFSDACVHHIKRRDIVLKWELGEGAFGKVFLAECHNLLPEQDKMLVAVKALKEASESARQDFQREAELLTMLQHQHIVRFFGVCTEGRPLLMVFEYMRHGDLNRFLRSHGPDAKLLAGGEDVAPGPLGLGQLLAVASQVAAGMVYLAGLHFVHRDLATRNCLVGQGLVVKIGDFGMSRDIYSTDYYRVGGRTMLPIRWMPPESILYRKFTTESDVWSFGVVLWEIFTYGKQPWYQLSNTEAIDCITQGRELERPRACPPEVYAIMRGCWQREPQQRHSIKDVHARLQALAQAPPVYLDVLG
# T6 sequence (P04626 23-1255): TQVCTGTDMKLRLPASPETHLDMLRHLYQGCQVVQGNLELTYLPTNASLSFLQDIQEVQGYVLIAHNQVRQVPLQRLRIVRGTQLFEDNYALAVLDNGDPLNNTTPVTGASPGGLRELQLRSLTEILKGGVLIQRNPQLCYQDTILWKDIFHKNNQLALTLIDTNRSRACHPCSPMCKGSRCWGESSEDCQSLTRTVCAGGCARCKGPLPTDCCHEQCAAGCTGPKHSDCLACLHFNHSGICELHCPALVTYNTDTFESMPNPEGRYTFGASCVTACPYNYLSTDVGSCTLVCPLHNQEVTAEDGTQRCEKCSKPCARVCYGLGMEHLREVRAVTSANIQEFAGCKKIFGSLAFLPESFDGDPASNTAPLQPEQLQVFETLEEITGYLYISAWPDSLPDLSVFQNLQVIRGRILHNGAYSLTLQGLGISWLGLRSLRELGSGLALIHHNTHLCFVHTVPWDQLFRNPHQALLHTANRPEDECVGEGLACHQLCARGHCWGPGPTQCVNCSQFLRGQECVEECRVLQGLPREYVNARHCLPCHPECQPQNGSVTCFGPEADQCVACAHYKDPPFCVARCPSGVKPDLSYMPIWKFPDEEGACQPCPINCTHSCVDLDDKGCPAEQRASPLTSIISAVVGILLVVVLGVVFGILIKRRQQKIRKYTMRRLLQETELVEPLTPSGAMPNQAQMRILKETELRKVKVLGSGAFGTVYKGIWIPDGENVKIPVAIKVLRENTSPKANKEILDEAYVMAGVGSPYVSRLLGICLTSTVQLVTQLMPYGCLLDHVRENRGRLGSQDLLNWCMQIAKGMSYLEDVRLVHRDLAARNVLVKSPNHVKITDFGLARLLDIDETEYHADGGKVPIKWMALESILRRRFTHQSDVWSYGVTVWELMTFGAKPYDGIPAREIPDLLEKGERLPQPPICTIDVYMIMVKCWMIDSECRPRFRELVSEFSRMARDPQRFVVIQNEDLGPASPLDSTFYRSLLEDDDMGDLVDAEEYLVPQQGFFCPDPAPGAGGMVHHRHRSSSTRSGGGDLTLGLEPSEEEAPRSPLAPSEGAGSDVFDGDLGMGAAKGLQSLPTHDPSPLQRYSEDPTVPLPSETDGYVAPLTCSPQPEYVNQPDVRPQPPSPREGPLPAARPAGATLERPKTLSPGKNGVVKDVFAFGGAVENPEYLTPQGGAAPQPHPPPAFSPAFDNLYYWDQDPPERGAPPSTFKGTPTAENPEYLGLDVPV
# T4 sequence (P51451 whole entry): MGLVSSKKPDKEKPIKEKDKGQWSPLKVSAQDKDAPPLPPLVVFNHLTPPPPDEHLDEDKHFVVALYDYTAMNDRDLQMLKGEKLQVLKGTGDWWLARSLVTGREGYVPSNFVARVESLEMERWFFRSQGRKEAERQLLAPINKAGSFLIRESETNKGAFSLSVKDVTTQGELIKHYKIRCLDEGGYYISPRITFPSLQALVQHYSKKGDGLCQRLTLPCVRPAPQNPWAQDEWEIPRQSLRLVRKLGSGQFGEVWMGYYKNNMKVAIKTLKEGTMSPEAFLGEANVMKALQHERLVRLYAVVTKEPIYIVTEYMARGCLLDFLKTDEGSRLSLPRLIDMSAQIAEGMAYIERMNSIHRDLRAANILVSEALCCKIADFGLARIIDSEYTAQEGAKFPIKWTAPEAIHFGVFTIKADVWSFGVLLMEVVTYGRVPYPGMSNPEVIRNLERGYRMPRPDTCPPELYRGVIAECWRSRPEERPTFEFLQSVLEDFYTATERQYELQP
# T3 sequence (P00533 25-1210): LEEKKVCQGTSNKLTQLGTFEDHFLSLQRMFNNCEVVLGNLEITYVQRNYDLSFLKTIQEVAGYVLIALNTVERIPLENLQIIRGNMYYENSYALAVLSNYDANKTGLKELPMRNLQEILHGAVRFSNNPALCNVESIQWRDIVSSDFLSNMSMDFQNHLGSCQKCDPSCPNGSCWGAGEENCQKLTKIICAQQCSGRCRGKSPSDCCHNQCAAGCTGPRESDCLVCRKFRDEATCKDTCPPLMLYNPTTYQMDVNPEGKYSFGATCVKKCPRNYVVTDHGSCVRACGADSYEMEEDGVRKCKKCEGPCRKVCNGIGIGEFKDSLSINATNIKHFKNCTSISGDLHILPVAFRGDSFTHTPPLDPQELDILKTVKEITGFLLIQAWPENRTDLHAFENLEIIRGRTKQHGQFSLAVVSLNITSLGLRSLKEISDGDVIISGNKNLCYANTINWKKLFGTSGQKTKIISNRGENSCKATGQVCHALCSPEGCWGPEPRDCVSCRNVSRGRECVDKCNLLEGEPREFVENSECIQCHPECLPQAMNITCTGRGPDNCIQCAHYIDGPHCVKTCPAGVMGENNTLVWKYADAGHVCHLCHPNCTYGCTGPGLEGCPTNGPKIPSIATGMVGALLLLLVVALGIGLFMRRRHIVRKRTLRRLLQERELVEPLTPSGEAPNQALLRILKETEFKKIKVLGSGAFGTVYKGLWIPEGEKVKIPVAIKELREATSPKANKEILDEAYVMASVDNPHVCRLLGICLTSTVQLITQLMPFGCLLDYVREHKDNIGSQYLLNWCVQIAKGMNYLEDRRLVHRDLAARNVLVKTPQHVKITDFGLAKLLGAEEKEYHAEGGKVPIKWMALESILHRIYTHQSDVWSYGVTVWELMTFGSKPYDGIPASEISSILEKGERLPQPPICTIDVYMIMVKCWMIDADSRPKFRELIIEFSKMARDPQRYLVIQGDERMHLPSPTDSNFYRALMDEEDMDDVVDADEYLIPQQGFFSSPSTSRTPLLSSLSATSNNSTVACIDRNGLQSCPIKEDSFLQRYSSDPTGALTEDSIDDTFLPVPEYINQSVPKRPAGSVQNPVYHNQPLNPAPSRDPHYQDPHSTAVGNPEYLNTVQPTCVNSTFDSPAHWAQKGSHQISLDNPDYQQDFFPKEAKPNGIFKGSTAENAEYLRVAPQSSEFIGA
# T7 sequence (P04049 whole entry): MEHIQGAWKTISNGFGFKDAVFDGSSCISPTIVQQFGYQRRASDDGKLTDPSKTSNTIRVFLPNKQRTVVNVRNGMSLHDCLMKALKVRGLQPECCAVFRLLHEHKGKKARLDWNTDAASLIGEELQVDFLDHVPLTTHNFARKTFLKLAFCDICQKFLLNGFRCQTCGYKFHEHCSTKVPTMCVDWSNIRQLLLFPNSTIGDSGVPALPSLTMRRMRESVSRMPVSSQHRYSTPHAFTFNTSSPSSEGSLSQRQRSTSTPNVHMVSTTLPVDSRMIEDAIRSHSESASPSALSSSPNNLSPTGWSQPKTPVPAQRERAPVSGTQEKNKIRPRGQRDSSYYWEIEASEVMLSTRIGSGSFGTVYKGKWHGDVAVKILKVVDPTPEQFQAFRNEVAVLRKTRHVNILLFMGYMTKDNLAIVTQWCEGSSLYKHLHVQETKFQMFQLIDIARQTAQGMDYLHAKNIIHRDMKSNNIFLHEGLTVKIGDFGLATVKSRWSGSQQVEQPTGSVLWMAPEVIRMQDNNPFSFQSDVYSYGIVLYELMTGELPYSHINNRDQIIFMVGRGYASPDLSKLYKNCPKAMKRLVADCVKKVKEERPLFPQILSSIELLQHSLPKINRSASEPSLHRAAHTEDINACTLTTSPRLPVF
smiles,measurement,setting,value
COc1cc(O[C@H]2CCN(C)CC2(F)F)c2c(Nc3ccc(Oc4ccn5ncnc5c4)c(C)c3)ncnc2c1 [DZD1516],"Papp at 120 min, 5 μM",[1],90 ×10⁻⁶ cm/s
same,antitumor efficacy,[2]; 100 mg/kg or 150 mg/kg twice daily,tumor remission was achieved
same,antitumor efficacy,[2]; monotherapy 50 mg/kg (data not shown),tumor shrinkage or complete tumor remission
same,CSF conc,"[3]; 50 mg, subject 1",4.89 nmol/L
same,Free plasma conc,"[3]; 50 mg, subject 1",5.35 nM
same,CSF conc,"[3]; 50 mg, subject 2",10.2 nmol/L
same,Free plasma conc,"[3]; 50 mg, subject 2",6.28 nM
same,CSF conc,"[3]; 100 mg, subject 3",39.3 nmol/L
same,Free plasma conc,"[3]; 100 mg, subject 3",13.4 nM
same,CSF conc,"[3]; 100 mg, subject 4",15.5 nmol/L
same,Free plasma conc,"[3]; 100 mg, subject 4",4.95 nM
same,CSF conc,"[3]; 100 mg, subject 5",12.7 nmol/L
same,Free plasma conc,"[3]; 100 mg, subject 5",4.84 nM
same,CSF conc,"[3]; 200 mg, subject 6",18.3 nmol/L
same,Free plasma conc,"[3]; 200 mg, subject 6",13.9 nM
same,CSF conc,"[3]; 250 mg, subject 7",27.9 nmol/L
same,Free plasma conc,"[3]; 250 mg, subject 7",24.0 nM
same,CSF conc,"[3]; 250 mg, subject 8",54.2 nmol/L
same,Free plasma conc,"[3]; 250 mg, subject 8",17.4 nM
same,Kp uu,"[3]; CSF (relative to unbound plasma), patients with CNS metastases, read-out: mean Kp,uu,CSF",2.1
same,Kp uu,"[3]; CSF / free plasma, 100 mg, subject 4, read-out: Kp,uu,CSF",3.13
same,Kp uu,"[3]; CSF / free plasma, 100 mg, subject 5, read-out: Kp,uu,CSF",2.63
same,Kp uu,"[3]; CSF / free plasma, 200 mg, subject 6, read-out: Kp,uu,CSF",1.31
same,Kp uu,"[3]; CSF / free plasma, 250 mg, subject 7, read-out: Kp,uu,CSF",1.16
same,Kp uu,"[3]; CSF to free plasma, 50 mg, subject 1, read-out: Kp,uu,CSF",0.915
same,Kp uu,"[3]; CSF to free plasma, 50 mg, subject 2, read-out: Kp,uu,CSF",1.62
same,Kp uu,"[3]; CSF to free plasma, 100 mg, subject 3, read-out: Kp,uu,CSF",2.94
same,Kp uu,"[3]; CSF to free plasma, 250 mg, subject 8, read-out: Kp,uu,CSF",3.13
same,IC50,Met(h),1090 nM
same,IC50,"EGFR(T790M,L858R)(h)",244 nM
same,IC50,EGFR(h),92 nM
same,IC50,Blk(h),2670 nM
same,IC50,TrkA(h),1290 nM
same,IC50,HER2(h),16 nM
same,IC50,c-RAF(h),1040 nM
same,IC50,Lyn(h),2300 nM
same,IC50,Fms(h),1070 nM
same,IC50,Lck(h),433 nM
same,IC50,ErbB4(h),52 nM
